Laboratory results taken from patent publication US7595294B2, “Vasoactive intestinal polypeptide pharmaceuticals” (Transition Therapeutics, Inc., priority 2004, dated 2009).
Where no end group is shown, it is not given here.

What was measured:
db/db mice = test: In vivo bioassay: blood glucose in db/db mice after intraperitoneal injection; conditions: for Mean Blood Glucose Levels: i.p.; for Activity (reduced plasma glucose), in words: high dose
Method: Tested Study Groups. Naïve, 8 weeks old female db/db mice were acclimated for one week, during which period animals were handled periodically to allow them to be acclimated to experiment procedures. Study groups contained 6 mice per group and were administered with one of the following by intraperitoneal injection:
(2) Positive control (exendin-4 or other standard treatment);
(3) Polypeptide Analog at high dose; or
(4) Polypeptide Analog at low dose.
A small volume of blood was taken from a cut at the tip of tail for blood sampling. Blood glucose levels were determined on a commercial, hand-held glucose meter. On Day 1, animals were injected with polypeptide analogs and controls in the morning. Blood samples were taken and analyzed immediately before injection and at 2, 4, 8, 14, and 24 hours after injection. Animals were allowed to feed, ad libitem, throughout the assay (Tsutsumi et al., Diabetes 51:1453-60 (2002)).

Rat islets = test: In vitro bioassay with islet cell static cultures (insulin secretion, ELISA); type: cell-based; conditions: for Insulin secreted: Table 2, 120 min incubation; for Concentration at which maximal activity was exhibited in the assay: islet static culture, insulin secretion; for Average Insulin secreted: Table 3
Method: Islet isolation. […] Generally, the islets were prepared by injecting collagenase (10 mL of 0.23 mg/mL Liberase, Roche Molecular Biochemicals, Indianapolis, Ind.) into the pancreatic duct of the partially dissected pancreas and surgically removing it. All procedures were approved by the Institutional Animal Care and Use Committee at the University of Washington.
The pancreata were placed into 15 mL conical tubes containing 5 mL of 0.23 mg/mL Liberase and incubated at 37° C. for 30 min. The digestate was then filtered through a 400-micrometer stainless steel screen, rinsed with Hanks' buffered salt solution, and purified in a gradient solution of Optiprep (Nycomed, Oslo, Norway).
Bioassay. Islets were picked under a microscope and placed into 10 ml 3 mM Krebs Ringer Buffer (KRB) solution for washing. Islets were incubated in 3 mM glucose KRB for 60 min and then groups of 10 islets per well were placed into 200 μl media in a 96-well plate. […] The buffer conditions were KRB with 0.1% BSA, 20 mM HEPES and the assay was performed in quadruplicate. Supernatants were evaluated for insulin content using a commercial insulin enzyme-linked immunosorbent (ELISA) assay per manufacturer's directions.

[1] = High dose, 0 hr (immediately before injection)
[2] = High dose, 2 hr after injection
[3] = High dose, 4 hr after injection
[4] = High dose, 8 hr after injection
[5] = High dose, 14 hr after injection
[6] = High dose, 24 hr after injection
[7] = Low dose, 0 hr (immediately before injection)
[8] = Low dose, 14 hr after injection
[9] = Low dose, 24 hr after injection

Substance	Mean Blood Glucose Levels (db/db mice; [1]) [mmol/L]	Mean Blood Glucose Levels (db/db mice; [2]) [mmol/L]	Mean Blood Glucose Levels (db/db mice; [3]) [mmol/L]	Mean Blood Glucose Levels (db/db mice; [4]) [mmol/L]	Mean Blood Glucose Levels (db/db mice; [5]) [mmol/L]	Mean Blood Glucose Levels (db/db mice; [6]) [mmol/L]	Mean Blood Glucose Levels (db/db mice; [7]) [mmol/L]	Mean Blood Glucose Levels (db/db mice; Low dose, 2 hr after injection) [mmol/L]	Mean Blood Glucose Levels (db/db mice; Low dose, 4 hr after injection) [mmol/L]	Mean Blood Glucose Levels (db/db mice; Low dose, 8 hr after injection) [mmol/L]	Mean Blood Glucose Levels (db/db mice; [8]) [mmol/L]	Mean Blood Glucose Levels (db/db mice; [9]) [mmol/L]	Insulin secreted (Rat islets; 50 nM peptide + 16 mM glucose) [ng/100 islets/min]	Insulin secreted (Rat islets; 200 nM peptide + 16 mM glucose) [ng/100 islets/min]	Concentration at which maximal activity was exhibited in the assay (Rat islets) [nM]	Activity (reduced plasma glucose), in words (db/db mice; 2 hr after injection)	Activity (reduced plasma glucose), in words (db/db mice; 4 hrs post dosing)	Average Insulin secreted (Rat islets; 10 nM peptide + 16 mM glucose) [ng/100 islets/min]	Average Insulin secreted (Rat islets; 100 nM peptide + 16 mM glucose) [ng/100 islets/min]	Average Insulin secreted (Rat islets; 1 uM peptide + 16 mM glucose) [ng/100 islets/min]
TP-103: exemplary synthetic polypeptide analog of PACAP/VIP, amino acid sequence SEQ ID NO: 2 (HSDAVFTDNYTRLRKQVAAKKYLNSIKKGKRELLEKLLRKLK; ends and bridges not checked)	20.7	17.3	16.9	23.4	23.7	25.0	22.9	20.5	17.6	26.4	24.6	21.4								
TP-106: highly hydrophobic polypeptide analog, designed to depot in the site of sc injection; SEQ ID NO: 5 (HSDAVFTDNYTRLRKQVAAKKYLNSIKKGKRELLEKLK)	21.8	13.4	14.7	25.1	26.3	21.2	23.9	20.5	16.1	24.0	28.2	23.2	2.72	5.20	200	statistically significant activity	maintains activity			
TP-107: exemplary synthetic polypeptide analog of PACAP/VIP, amino acid sequence SEQ ID NO: 6 (HSDAVFTDNYTRLRKQVAAKKYLNWIKKAKRELLEKLK; ends and bridges not checked)															100			2.89	6.10	6.07
TP-108: exemplary synthetic polypeptide analog of PACAP/VIP, amino acid sequence SEQ ID NO: 7 (HSDAVFTDNYTRLRKQLAAKKYLNSIKKGKRLLRKLQPPPK; ends and bridges not checked)																			4.10	5.65
